Laboratory results taken from US20210116454A1, “METHODS FOR TREATING A HEMATOLOGICAL CANCER AND THE USE OF COMPANION BIOMARKERS FOR 2-(2,6-DIOXOPIPERIDIN-3-YL)-4-((2-FLUORO-4-((3-MORPHOLINOAZETIDIN-1-YL)METHYL)BENZYL)AMINO)ISOINDOLINE-1,3-DIONE” (CELGENE CORPORATION, priority 2019, published 2021).
Where two headings read alike, the source gives them in different places.

Legend:
[1] = biological target: T1, ZFP91 (Homo sapiens, UniProt Q96JP5+Q96SW2); assay: ePL-tagged substrate degradation kinetics in DF15 cells (enantiomer comparison); format: cell-based; parameters: ZFP91 Y-constant: scale not given here; details: for DC50: read-out: ZFP91 EC50
T1 construct: expressed in transfected cells; host or cells: DF15 cells
Method: (§1) In a second assay, DF15 cell lines expressing ePL-tagged target protein substrates were used as a model system to monitor protein degradation at 0.75, 1, 1.5, 3, 4, and 24 hours over a concentration range from 1 pM to 10 μM. The proteins evaluated were Ikaros (FIG. 17), Aiolos, and ZFP91. Compound 1 and Compound 2 were both able to degrade the substrate proteins at all time points (Table 9). In a further assay, additional time points were included to monitor the effect of treatment with Compound 1 and Compound 2.
(§2) The depth of substrate protein degradation described by the Y-constant was also measured in this assay against a negative control luciferase inhibitor (CC1071297, Y-constant=0).

[2] = biological target: cereblon (CRBN) (Homo sapiens, UniProt Q96SW2); assay: Cereblon binding TR-FRET ligand competition assay
Method: To investigate whether Compound 1 and its R-enantiomer Compound 2 could bind to cereblon, a short duration (10 to 20 minutes) ligand competition assay was used.

[3] = tested on: Peripheral blood mononuclear cells derived from four healthy donors; assay: Viability of CD3-stimulated PBMCs (Viobility Fixable Dye, flow cytometry); format: cell-based
Method: To establish that this was due to the effect of the compound in promoting Ikaros degradation and not because of a lack of cell proliferation or viability of the CD3-stimulated PBMCs, the effect of Compound 1 on their viability was assessed by flow cytometry. […] Peripheral blood mononuclear cells derived from four healthy donors were exposed to Compound 1 at concentrations of 0.1, 1, 10, or 100 nM for 3, 4, or 7 days, and viability was measured by staining with Viobility™ Fixable Dye. […] The trend in cell viability continued through day 7, with Compound 1 treatment not effecting the viability of the PBMCs.

[4] = tested on: SU-DHL-2^CRBNWT cells; assay: Live-cell imaging of caspase-3 activation; format: cell-based; details: time course of 112 hours
Method: To confirm the timing of induction of apoptosis and its cereblon dependency, a live-cell imager that provides kinetic, real-time caspase-3 activation (indicator of apoptosis) data was used. SU-DHL-2^CRBNWT cells treated with Compound 1 were analyzed for caspase-3 activation by following the cleavage in cells of a specific caspase-3 enzyme substrate over a time course of 112 hours. Compound 1-dependent induction of caspase-3 activity began at 12 hours post treatment and reached maximal induction at ˜72 hours (FIG. 5 D).

[5] = tested on: bone marrow CD34+ cells from healthy donors; assay: Ex vivo maturation of myeloid progenitors to neutrophils (flow cytometry); format: cell-based
Method: The effects of Compound 1 on maturation of myeloid progenitors to neutrophils were assessed in ex vivo cultures of bone marrow CD34+ cells from healthy donors and different dosing schedules were evaluated to gain insight into the schedule dependence of these events.
Myeloid differentiation was induced by adding stem cell factor (SCF), FMS-related tyrosine kinase 3 ligand (FLT3-L), and granulocyte colony stimulating factor (G-CSF) to culture media. Cell differentiation in the presence or absence of Compound 1 was evaluated at prespecified time points by flow cytometry as the percentage of cells in 5 subpopulations: (1) hematopoietic stem cells (HSC, CD34+/CD33−/CD11b−); (2) Stage I cells (CD34+/CD33+/CD11b−); (3) Stage II cells (CD34−/CD33+/CD11b−); (4) Stage III cells (CD34−/CD33+/CD11b+) and (5) Stage IV cells (CD34−/CD33−/CD11b+) cells (from immature to mature). Differentiation and viability were monitored during the complete assay every two or three days.
However, the viability of neutrophil precursors exposed to Compound 1 was not affected (FIG. 18).
Recovery of mature neutrophils after Compound 1 exposure was also evaluated in the system.

[6] = biological target: T2, Aiolos (Homo sapiens, UniProt Q96SW2+Q9UKT9); assay: ePL-tagged substrate degradation kinetics in DF15 cells (enantiomer comparison); format: cell-based; parameters: Aiolos Y-constant: scale not given here; details: for DC50: read-out: Aiolos EC50
T2 construct: expressed in transfected cells; host or cells: DF15 cells
Method: as §1, §2

Structure (SMILES): O=C1CC[C@H](N2C(=O)c3cccc(NCc4ccc(CN5CC(N6CCOCC6)C5)cc4F)c3C2=O)C(=O)N1 [Compound 1, (S)-2-(2,6-dioxopiperidin-3-yl)-4-((2-fluoro-4-((3-morpholinoazetidin-1-yl)methyl)benzyl)amino)isoindoline-1,3-dione]
- ZFP91 Y-constant ([1]; 0.75 hours): 37
- DC50 ([1]; 0.75 hours): 0.54 nM
- ZFP91 Y-constant ([1]; 1 hour): 28
- DC50 ([1]; 1 hour): 0.36 nM
- ZFP91 Y-constant ([1]; 1.5 hours): 11
- DC50 ([1]; 1.5 hours): 0.36 nM
- ZFP91 Y-constant ([1]; 3 hours): 4.9
- DC50 ([1]; 3 hours): 0.19 nM
- ZFP91 Y-constant ([1]; 4 hours): 4.3
- DC50 ([1]; 4 hours): 0.17 nM
- ZFP91 Y-constant ([1]; 24 hours): 2.0
- DC50 ([1]; 24 hours): 0.15 nM
- higher binding affinity for CRBN compared to Compound 2 [2]: eleven-fold
- IC50 ([2]; 10 to 20 minutes, n=5): 860 ± 100 nM
- effect on PBMC viability ([3]; 0.1, 1, 10, or 100 nM for 3, 4, or 7 days): no significant effect
- viable PBMCs ([3]; day 3 and day 4, 0.1, 1, 10, or 100 nM): roughly 80%
- start of induction of caspase-3 activity post treatment [4]: 12 h
- time of maximal induction of caspase-3 activity [4]: ~72 h
- late-stage maturation of neutrophil progenitors ([5]; 14 or 5 days of exposure): blocked
- Number of Days in Washout Period Required for Recovery to 50% of Stage IV Cells ([5]; 5 days treatment, 0.1 nM): 0 days
- Number of Days in Washout Period Required for Recovery to 50% of Stage IV Cells ([5]; 5 days treatment, 1 nM): 1 days
- Number of Days in Washout Period Required for Recovery to 50% of Stage IV Cells ([5]; 5 days treatment, 10 nM): 1 days
- Number of Days in Washout Period Required for Recovery to 50% of Stage IV Cells ([5]; 5 days treatment, 1000 nM): 5 days
- Number of Days in Washout Period Required for Recovery to 50% of Stage IV Cells ([5]; 14 days treatment, 0.1 nM): 0 days
- Number of Days in Washout Period Required for Recovery to 50% of Stage IV Cells ([5]; 14 days treatment, 1 nM): 0 days
- Number of Days in Washout Period Required for Recovery to 50% of Stage IV Cells ([5]; 14 days treatment, 100 nM): 4 days
- Number of Days in Washout Period Required for Recovery to 50% of Stage IV Cells ([5]; 14 days treatment, 1000 nM): 4 days
- viability of neutrophil precursors ([5]; Annexin V and 7-AAD, 14 or 5 days exposure): not affected
- recovery of the proportion of mature neutrophils (Stage IV cells) from its nadir ([5]; after 1 week without Compound 1): ≥ 50%
- recovery of Stage IV cells relative to Stage IV cell population in the DMSO control ([5]; one week without drug, all tested conditions): at least 50%
- Aiolos Y-constant ([6]; 0.75 hours): 46
- DC50 ([6]; 0.75 hours): 0.73 nM
- Aiolos Y-constant ([6]; 1 hour): 29
- DC50 ([6]; 1 hour): 0.94 nM
- Aiolos Y-constant ([6]; 1.5 hours): 11
- DC50 ([6]; 1.5 hours): 0.72 nM
- Aiolos Y-constant ([6]; 3 hours): 4.8
- DC50 ([6]; 3 hours): 0.6 nM
- Aiolos Y-constant ([6]; 4 hours): 3.9
- DC50 ([6]; 4 hours): 0.56 nM
- Aiolos Y-constant ([6]; 24 hours): 4.0
- DC50 ([6]; 24 hours): 0.52 nM
